Test [1] has as its target μ-opioid receptor (Rattus norvegicus, UniProt P33535). The conditions noted are these: read-out: Ki in binding to the μ-opioid receptor; rat forebrain preparation, [3H]DAMGO, 25° C.
Test [2] addresses T1, δ-opioid receptor (Rattus norvegicus, UniProt P33533).
T1 construct: the forebrains are homogenized in Tris buffer in a Teflon®-glass homogenizer; from tissue; host or cells: forebrain of male Wistar rats, particulate (membrane) preparation
Particulars: read-out: Ki in binding to the δ-opioid receptor.

The target in test [3] is T2, opioid delta receptor (Homo sapiens, UniProt P41143).
T2 construct: purchased Receptor Biology, Baltimore, Md; host or cells: CHO cells (recombinant, membranes)
T2 sequence (P41143 whole entry): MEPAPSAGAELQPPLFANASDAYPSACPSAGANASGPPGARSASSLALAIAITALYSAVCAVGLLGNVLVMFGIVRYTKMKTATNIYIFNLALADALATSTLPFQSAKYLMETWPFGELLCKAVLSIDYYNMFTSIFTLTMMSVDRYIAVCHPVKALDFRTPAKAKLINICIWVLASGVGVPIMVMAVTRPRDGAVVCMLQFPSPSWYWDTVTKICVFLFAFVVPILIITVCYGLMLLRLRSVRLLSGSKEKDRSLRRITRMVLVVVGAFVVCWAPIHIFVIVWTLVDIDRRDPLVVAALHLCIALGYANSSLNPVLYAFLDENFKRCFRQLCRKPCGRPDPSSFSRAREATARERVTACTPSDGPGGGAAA
The test is classed as binding.

The subject of test [4] is acetylcholine bromide-induced abdominal constriction response. Description: Mouse Acetylcholine Bromide-Induced Abdominal Constriction Assay. The class given is in vivo. The conditions noted are these: p.o., 30 minutes before i.p. 5.5 mg/kg acetylcholine bromide, % inhibition of constriction response (% analgesia). As to the method: C) Mouse Acetylcholine Bromide-Induced Abdominal Constriction Assay
The mouse acetylcholine-induced abdominal constiction assay, as described by Collier et al. in Brit. J. Pharmacol. Chem. Ther., 32: 295-310, 1968, with minor modifications was used to assess analgesic potency of the compounds of formula (I). The test drugs or appropriate vehicles were administered orally (p.o.) and 30 minutes later the animal received an intraperitoneal (i.p.) injection of 5.5 mg/kg acetylcholine bromide (Matheson, Coleman and Bell, East Rutherford, N.J.). The mice were then placed in groups of three into glass bell jars and observed for a ten minute observation period for the occurrence of an abdominal constriction response (defined as a wave of constriction and elongation passing caudally along the abdominal wall, accompanied by a twisting of the trunk and followed by extension of the hind limbs). The percent inhibition of this response to a nociceptive stimulus (equated to % analgesia) was calculated as follows: The % inhibition of response, i.e., % analgesia is equal to the difference between the No. of control animal responses and the No. of drug-treated animal responses times 100 divided by the No. of control animals responding.

Usually Ki stands for a measure of affinity in units of concentration, obtained from inhibition or displacement. A word on the ED50: it is the dose that gives a 50% effect, or the effect in half of the subjects. Low values mean an effect at a small dose, high ones a need for a large dose.

Chain of μ-opioid receptor (P33535 whole entry): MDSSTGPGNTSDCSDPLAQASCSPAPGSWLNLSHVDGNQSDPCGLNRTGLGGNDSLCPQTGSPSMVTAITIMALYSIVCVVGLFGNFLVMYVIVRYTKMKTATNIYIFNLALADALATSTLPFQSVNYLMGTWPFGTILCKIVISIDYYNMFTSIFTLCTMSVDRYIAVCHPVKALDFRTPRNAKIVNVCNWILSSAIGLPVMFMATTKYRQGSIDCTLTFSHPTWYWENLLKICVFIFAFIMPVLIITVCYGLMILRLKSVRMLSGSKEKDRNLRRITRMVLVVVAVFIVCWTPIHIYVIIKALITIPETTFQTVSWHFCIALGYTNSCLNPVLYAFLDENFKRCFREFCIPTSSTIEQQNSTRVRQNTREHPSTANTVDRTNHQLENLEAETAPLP
T1 sequence (P33533 whole entry): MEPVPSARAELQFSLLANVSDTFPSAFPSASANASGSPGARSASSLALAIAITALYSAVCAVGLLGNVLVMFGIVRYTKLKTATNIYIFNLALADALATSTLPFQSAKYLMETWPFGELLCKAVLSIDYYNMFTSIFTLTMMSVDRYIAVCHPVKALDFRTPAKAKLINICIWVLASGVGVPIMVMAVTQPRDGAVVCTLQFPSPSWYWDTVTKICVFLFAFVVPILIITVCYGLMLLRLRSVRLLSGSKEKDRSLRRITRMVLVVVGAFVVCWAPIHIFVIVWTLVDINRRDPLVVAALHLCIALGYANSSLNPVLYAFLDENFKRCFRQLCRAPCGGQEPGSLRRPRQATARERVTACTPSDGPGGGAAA

For the compound `CCCN1CCC(N(c2ccccc2)c2cccc(C(=O)N(C)c3ccccc3)c2)CC1.O=C(O)/C=C/C(=O)O` [C4, N-Methyl-N-phenyl-3-[phenyl(1-propylpiperidin-4-yl)amino]benzamide Fumarate[1:1.4]], the Ki was 153 nM in test [1] and 25 nM in test [2]. Moreover, the “% I @ 25 μM” value in test [3] stood at 41%. In test [4], the median effective dose (ED50) came to 4.2 µmol/kg.

The values are drawn from patent US6436959B1 (priority 1998, dated 2002).
